Test results reported in patent publication US20220184086A1, “PLK1 INHIBITORS AND PSA LEVELS IN PROSTATE CANCER” (Cardiff Oncology, Inc., priority 2019, published 2022).
Read-outs that look alike come from different tables or passages of the source.

Legend:
CYP2C8 = biological target: T1, CYP2C8 (Homo sapiens, UniProt P10632); assay: Inhibition of human cytochrome P450s, human liver microsomes; assay type: in vitro ADME
T1 construct: was investigated using human liver microsomes; from tissue; host or cells: human liver microsomes
T1 sequence (P10632 1-490): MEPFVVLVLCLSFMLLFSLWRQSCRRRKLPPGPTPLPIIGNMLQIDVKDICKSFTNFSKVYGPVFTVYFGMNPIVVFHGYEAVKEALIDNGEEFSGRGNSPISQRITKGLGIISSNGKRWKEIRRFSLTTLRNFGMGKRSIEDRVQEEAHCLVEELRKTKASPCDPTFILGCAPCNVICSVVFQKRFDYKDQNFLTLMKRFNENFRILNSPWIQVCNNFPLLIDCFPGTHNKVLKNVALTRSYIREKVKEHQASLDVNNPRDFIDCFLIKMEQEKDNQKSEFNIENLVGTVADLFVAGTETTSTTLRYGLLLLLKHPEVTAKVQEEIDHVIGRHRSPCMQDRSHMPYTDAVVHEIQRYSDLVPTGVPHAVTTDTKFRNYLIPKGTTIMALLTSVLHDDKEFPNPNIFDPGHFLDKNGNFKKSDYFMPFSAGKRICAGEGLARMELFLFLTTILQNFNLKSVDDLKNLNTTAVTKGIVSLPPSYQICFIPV

[1] = tested on: patients with metastatic castration-resistant prostate cancer (mCRPC)
CYP2C9 = biological target: T2, CYP2C9 (Homo sapiens, UniProt P11712); assay: Inhibition of human cytochrome P450s, human liver microsomes; assay type: in vitro ADME; conditions: Diclofenac 4-hydroxylation, mean ± SEM
T2 construct: was investigated using human liver microsomes; from tissue; host or cells: human liver microsomes

[2] = tested on: cell lines, both from solid as well as hematologic tumors; conditions: large number of cell lines; cited from earlier work
[3] = Pharmacokinetics from the prior phase 1 trial; assay type: in vivo; conditions: 24 mg/m^2 dose
Excerpt: This is consistent with the observed downward changes of PSA values for patients shown above.

[4] = tested on: circulating tumor cells (CTC); assay: Phase 2 study: circulating tumor cell (CTC) evaluation; assay type: in vivo, human; conditions: for CTC Fold Change: C1D1 to C5D1; for CTC Count (C5D1): onvansertib+abiraterone
Protocol: Circulating tumor cell (CTC) evaluation, reported as favorable or unfavorable (<5 vs.≥CTC/7.5 ml of blood), is shown in FIG. 8. At baseline, 25 (78%) patients had unfavorable CTC count with median of 19 CTC/7.5 ml. Ten of the unfavorable patients were re-analyzed after 12 weeks of treatment.

[5] = tested on: adult patients with advanced/metastatic solid tumors; conditions: cited from earlier work
CYP3A4 = biological target: T3, CYP3A4 (Homo sapiens, UniProt P08684); assay: Inhibition of human cytochrome P450s, human liver microsomes; assay type: in vitro ADME; conditions: mean ± SEM
T3 construct: was investigated using human liver microsomes; from tissue; host or cells: human liver microsomes

[6] = Phase 2 study Arm A: absolute neutrophil counts (ANC); assay type: in vivo, human; conditions: 7 patients plotted, patients 02-002 and 02-005
Protocol: To evaluate this further, neutrophil levels were assessed for patients within Arm A of the current trial. Absolute neutrophil counts (ANC) are plotted in FIG. 3 for 7 patients, with ANC 1.5 indicated as the threshold for Grade 2 (CTCAE version 4.03). Two patients experienced ≥Grade 2 neutropenia after the first cycle of treatment (02-002 and 02-005).

CYP1A2 = biological target: T4, CYP1A2 (Homo sapiens, UniProt P05177); assay: Inhibition of human cytochrome P450s, human liver microsomes; assay type: in vitro ADME
T4 construct: was investigated using human liver microsomes; from tissue; host or cells: human liver microsomes
T4 sequence (P05177 1-516): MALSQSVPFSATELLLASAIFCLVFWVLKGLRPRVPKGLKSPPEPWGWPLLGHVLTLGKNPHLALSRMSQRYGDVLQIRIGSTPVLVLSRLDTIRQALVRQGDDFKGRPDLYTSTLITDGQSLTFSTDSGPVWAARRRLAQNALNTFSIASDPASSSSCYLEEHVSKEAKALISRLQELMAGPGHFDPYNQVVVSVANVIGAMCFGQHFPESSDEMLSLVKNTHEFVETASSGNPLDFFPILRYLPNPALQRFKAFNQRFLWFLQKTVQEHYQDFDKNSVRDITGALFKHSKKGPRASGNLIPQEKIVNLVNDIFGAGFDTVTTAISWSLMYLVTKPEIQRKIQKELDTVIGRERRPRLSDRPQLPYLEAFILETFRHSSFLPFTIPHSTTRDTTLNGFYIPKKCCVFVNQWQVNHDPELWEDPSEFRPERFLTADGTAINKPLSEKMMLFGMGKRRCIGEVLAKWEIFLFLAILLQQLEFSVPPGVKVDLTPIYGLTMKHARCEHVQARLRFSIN

CYP2C19 = biological target: T5, CYP2C19 (Homo sapiens, UniProt P33261); assay: as above; assay type: in vitro ADME; conditions: Mephenytoin 4-hydroxylation, mean ± SEM
T5 construct: was investigated using human liver microsomes; from tissue; host or cells: human liver microsomes

xenograft tumor = conditions: mice, oral administration, well tolerated doses; cited from earlier work
CYP2D6 = biological target: T6, CYP2D6 (Homo sapiens, UniProt P10635); assay: Inhibition of human cytochrome P450s, human liver microsomes; assay type: in vitro ADME; conditions: Bufuralol 1-hydroxylation, mean ± SEM
T6 construct: was investigated using human liver microsomes; from tissue; host or cells: human liver microsomes

[7] = rodent and nonrodent species; cited from earlier work
[8] = ten patients with unfavorable baseline CTC re-analyzed after 12 weeks of treatment

T3 sequence (P08684 whole entry): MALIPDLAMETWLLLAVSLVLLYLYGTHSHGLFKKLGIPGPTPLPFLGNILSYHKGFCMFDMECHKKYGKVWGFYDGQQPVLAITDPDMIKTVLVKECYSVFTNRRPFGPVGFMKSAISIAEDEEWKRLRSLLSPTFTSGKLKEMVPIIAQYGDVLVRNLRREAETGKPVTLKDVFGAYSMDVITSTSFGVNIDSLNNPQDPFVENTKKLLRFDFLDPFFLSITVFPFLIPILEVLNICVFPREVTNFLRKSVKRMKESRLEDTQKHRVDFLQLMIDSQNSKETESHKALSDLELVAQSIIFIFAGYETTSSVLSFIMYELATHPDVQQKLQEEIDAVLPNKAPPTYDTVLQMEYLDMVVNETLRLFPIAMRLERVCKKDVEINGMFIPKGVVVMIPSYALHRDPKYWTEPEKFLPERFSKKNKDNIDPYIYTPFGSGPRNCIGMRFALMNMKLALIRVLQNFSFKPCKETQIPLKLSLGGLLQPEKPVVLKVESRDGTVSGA
T6 sequence (P10635 whole entry): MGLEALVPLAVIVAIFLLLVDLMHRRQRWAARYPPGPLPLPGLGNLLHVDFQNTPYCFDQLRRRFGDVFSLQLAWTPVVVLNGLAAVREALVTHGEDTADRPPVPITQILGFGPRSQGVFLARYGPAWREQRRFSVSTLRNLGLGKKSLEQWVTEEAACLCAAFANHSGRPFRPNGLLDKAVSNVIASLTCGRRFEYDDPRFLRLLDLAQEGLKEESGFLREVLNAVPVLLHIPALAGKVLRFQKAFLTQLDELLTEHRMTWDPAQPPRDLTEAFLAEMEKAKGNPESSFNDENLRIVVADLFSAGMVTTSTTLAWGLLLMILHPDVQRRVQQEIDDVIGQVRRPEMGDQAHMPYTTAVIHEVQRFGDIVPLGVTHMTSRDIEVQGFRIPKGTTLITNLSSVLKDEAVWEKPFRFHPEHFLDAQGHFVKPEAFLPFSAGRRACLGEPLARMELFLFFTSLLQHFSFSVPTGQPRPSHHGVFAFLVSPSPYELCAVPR
T2 sequence (P11712 whole entry): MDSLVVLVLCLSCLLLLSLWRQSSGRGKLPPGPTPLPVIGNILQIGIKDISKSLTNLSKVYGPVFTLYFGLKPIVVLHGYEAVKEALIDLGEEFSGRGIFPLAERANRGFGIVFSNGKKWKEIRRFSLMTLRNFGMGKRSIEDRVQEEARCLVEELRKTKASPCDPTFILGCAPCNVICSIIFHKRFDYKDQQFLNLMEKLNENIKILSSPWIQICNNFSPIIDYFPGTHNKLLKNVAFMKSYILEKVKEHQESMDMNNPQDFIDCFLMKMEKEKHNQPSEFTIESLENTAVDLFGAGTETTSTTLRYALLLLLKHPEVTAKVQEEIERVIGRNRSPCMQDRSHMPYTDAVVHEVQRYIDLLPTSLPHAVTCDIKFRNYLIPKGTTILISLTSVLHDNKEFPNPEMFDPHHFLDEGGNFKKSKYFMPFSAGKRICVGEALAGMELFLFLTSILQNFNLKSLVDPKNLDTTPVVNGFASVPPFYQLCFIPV
T5 sequence (P33261 whole entry): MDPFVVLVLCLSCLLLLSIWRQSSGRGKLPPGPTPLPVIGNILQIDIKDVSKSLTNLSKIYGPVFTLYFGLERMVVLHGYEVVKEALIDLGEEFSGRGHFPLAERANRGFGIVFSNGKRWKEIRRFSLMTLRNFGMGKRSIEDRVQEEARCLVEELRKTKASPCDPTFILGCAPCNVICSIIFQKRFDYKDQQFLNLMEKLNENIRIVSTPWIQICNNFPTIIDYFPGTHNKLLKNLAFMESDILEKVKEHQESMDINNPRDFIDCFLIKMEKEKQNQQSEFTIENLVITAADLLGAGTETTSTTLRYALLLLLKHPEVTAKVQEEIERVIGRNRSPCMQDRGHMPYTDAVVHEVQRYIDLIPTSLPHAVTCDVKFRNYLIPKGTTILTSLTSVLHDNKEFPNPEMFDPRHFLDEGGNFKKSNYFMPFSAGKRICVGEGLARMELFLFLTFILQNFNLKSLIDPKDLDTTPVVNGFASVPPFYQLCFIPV

## CN1CCN(c2ccc(OC(F)(F)F)c(Nc3ncc4c(n3)-c3c(c(C(N)=O)nn3CCO)CC4)c2)CC1 [onvansertib, 1-(2-hydroxyethyl)-8-{[5-(4-methylpiperazin-1-yl)-2-(trifluoromethoxy)phenyl]amino}-4,5-dihydro-1H-pyrazolo[4,3-h]quinazoline-3-carboxamide]
CYP2C8
  IC50: 20.2 ± 1.6 µM
[1]; 03-013 (Arm A) and 01-024 (Arm B)
  patients with disease stabilization after 5 or more treatment cycles: two
[1]; AR-V7+ subjects (n=4), August 2019
  initial PSA stabilization or decrease in AR-V7+ subjects: all
[1]; AR-V7 positive patients who completed 3 months of treatment
  AR-V7 positive patients achieving the primary endpoint of stable disease: Three of 4
[1]; AR-V7 positive patients who completed at least 1 cycle (n=5)
  initial PSA stabilization or decrease in AR-V7 positive patients: all
[1]; Arm A (n=14)
  patients achieving the efficacy endpoint (PSA stabilization): 5 patients
  patients remaining on treatment for >1 year: 2 patients
[1]; Arm A (n=14), 8 of 14
  patients with SD or PR at 12 weeks: 57%
[1]; Arm A, 3 of 14
  patients who have or had progression-free survival: 21%
[1]; Arm A, after dosing on days 1-5, with abiraterone and prednisone, then increase until next cycle
  PSA values at day 8 relative to baseline: go down
[1]; Arm B
  subjects with initial disease stabilization or reduction, based on PSA levels: 3 subjects
[1]; Arm B (n=5)
  patients achieving the efficacy endpoint (PSA stabilization): 3 patients
[1]; Arm B (n=5), 4 of 5
  patients with SD at 12 weeks: 80%
[1]; Arm B, 3 of 5
  patients who have or had progression-free survival of >7 months: 60%
[1]; Patient 03-013 (AR-V7), Arm A
  tumor shrinkage by CT scan at the end of the study: ~30%
[1]; Patient 03-013 (AR-V7), Arm A, 84 days, with abiraterone/prednisone
  PSA level increase after onvansertib was added: 8.4%
[1]; Patient 03-013, Arm A, into the fifth cycle
  PSA level above the baseline (C1D1) PSA level: below 25%
[1]; after 1 cycle of treatment with addition of onvansertib, eighteen out of 25
  patients with decreases in PSA levels: 72%
[1]; of AR-V7+ subjects (n=4), 03-013, 01-024
  AR-V7+ patients who met the primary efficacy endpoint: Two
[1]; patients who completed 4 cycles (12 weeks), onvansertib added to abiraterone
  patients confirmed AR-V7+ that have shown a PSA response: 2 of 6
CYP2C9
  IC50: 20.4 ± 3.2 µM
[2]
  activity in proliferation assays: low nanomolar activity
[3]
  time at which the amount of onvansertib is below the 10×IC50 value: 160 h
[3]; human, plasma, oral, 0.1 ng/ml is the limit of quantitation, read-out: drug concentrations at 290 hours (˜12 days)
  concentration at 290 h: < 0.1 ng/mL
[4]; patient 02-003
  CTC Fold Change: 17.9
[4]; patient 02-003, CTC count at C1D1 4.4
  CTC Count (C5D1): 78.6
[4]; patient 02-007
  CTC Fold Change: 6.9
[4]; patient 02-007, CTC count at C1D1 2.5
  CTC Count (C5D1): 17.3
[4]; patient 03-004
  CTC Fold Change: 3.0
[4]; patient 03-004, CTC count at C1D1 0.4
  CTC Count (C5D1): 1.2
[4]; patient 03-009
  CTC Fold Change: 1.5
[4]; patient 03-009, CTC count at C1D1 3.7
  CTC Count (C5D1): 5.4
[4]; patient 03-013
  CTC Fold Change: 1.4
[4]; patient 03-013, CTC count at C1D1 2.2
  CTC Count (C5D1): 3.0
[4]; patients with decrease CTC (n=5), to-date
  median time on treatment: 7 months
[4]; patients with increase CTC (n=5)
  median time on treatment: 5 months
[4]; [8]
  patients converted from unfavorable to favorable CTC level (<5 CTC/7.5 ml): 40%
  patients with a ≥80% CTC decrease: 50%
  patients with no detectable CTC: 30%
[5]; 36 mg/m^2/day, four patients treated
  DLTs observed: two
[5]; 48 mg/m^2/day
  patients who developed DLTs: 2 of 3
[5]; first 3 dose levels (6, 12, and 24 mg/m^2/day)
  dose-limiting toxicities (DLT): No DLTs
[5]; in vivo
  outcome of the one evaluable patient with prostate cancer: disease progression
  primary toxicities: thrombocytopenia and neutropenia
[5]; of the 16 evaluable patients
  best observed treatment response: disease stabilization: 5 patients
[5]; oral, 5 consecutive days every 3 weeks
  maximum tolerated dose (MTD): 24 mg/m^2/day
[5]; thrombocytopenia and neutropenia, reversible
  recovery of hematologic toxicities: ≤ 3 weeks
CYP3A4; Midazolam l′-hydroxylation
  IC50: 66.2 ± 4 µM
CYP3A4; Testosterone 6β-hydroxylation
  IC50: 52.7 ± 9.8 µM
[6]
  patients with ≥Grade 2 neutropenia after the first cycle: Two
CYP1A2
  inhibitory effects against CYP1A2: No significant inhibitory effects
CYP1A2; Tacrine 1-hydroxylation
  IC50: > 100 µM
CYP2C19
  IC50: 36.9 ± 15.7 µM
Xenograft tumor
  xenograft tumor growth: inhibits xenograft tumor growth
CYP2D6
  IC50: 26.8 ± 5.4 µM
[7]
  oral bioavailability: good oral bioavailability
